Patent EP4711369A1, “1H-[1,2,3]TRIAZOLO[4,5-H]QUINAZOLINE COMPOUNDS AS PROTEIN KINASE INHIBITORS” (Chengdu Cynogen Bio-Pharmaceutical Technology Co., Ltd., priority 2023, dated 2024)

What was measured:
[1] = test system: Human ovarian cancer OVCAR3 cells; assay: Assay of cell proliferation (CellTiter-Glo); type: cell-based; details: Homo sapiens, OVCAR-3, 144 h, 6 days, read-out: OVCAR3 IC50 of cell proliferation inhibitory activity
Method in brief: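 OVCAR3 cells, 2000/well in RPMI 1640 with 20% FBS, treated with nine 3-fold dilutions from 10 µM to 0.1 nM (0.5% DMSO) for 6 days at 37 °C. Viability by CellTiter-Glo luminescence; IC50 by four-parameter fit.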

[2] = test system: human breast cancer MCF-7 cells; assay: Assay of cell proliferation (CellTiter-Glo); type: cell-based; details: 144 h, MCF7 cells, 6 days, read-out: MCF7 IC50 of cell proliferation inhibitory activity
Method in brief: (§1)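 Cells seeded per line at growth-adapted densities, treated 6 days at 37 °C/5% CO2 with nine 3-fold dilutions (10 µM to 0.1 nM final, 0.5% DMSO). Viability by CellTiter-Glo luminescence; IC50 from four-parameter fit.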

[3] = test system: human breast cancer HCC1806 cells; assay: Assay of cell proliferation (CellTiter-Glo); type: cell-based; details: Homo sapiens, 144 h, 6 days, read-out: HCC1806 IC50 of cell proliferation inhibitory activity
Method in brief: as §1

[4] = test system: human colon cancer HCT-116 cells; assay: Assay of cell proliferation (CellTiter-Glo); type: cell-based; details: 144 h, 6 days, read-out: HCT-116 IC50 of cell proliferation inhibitory activity
Method in brief: as §1

[5] = test system: human acute myeloid leukemia MV-4-11 cells; assay: Assay of cell proliferation (CellTiter-Glo); type: cell-based; details: MV4-11, 144 h, 6 days, read-out: MV-4-11 IC50 of cell proliferation inhibitory activity
Method in brief: as §1

[6] = test system: human gastric cancer MKN1 cells; assay: Assay of cell proliferation (CellTiter-Glo); type: cell-based; details: Homo sapiens, MKN-1, 144 h; MNK1, 6 days; read-out: MKN1 IC50 of cell proliferation inhibitory activity
Method in brief: as §1

CDK2/cyclin E = CDK2/cyclin E (Homo sapiens, UniProt P24941); assay: Assay of kinase activity (ADP-Glo); type: biochemical; details: kinase inhibitory activity, read-out: CDK2/E1 IC50
Method in brief: (§2)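 Kinase preincubated 10 min with compound in 50 mM Hepes, 10 mM MgCl2, 0.01% Brij35, 2 mM DTT, then substrate/ATP added for 60 min at 25 °C. ADP formed measured by ADP-Glo luminescence; IC50 by nonlinear concentration-response fitting.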

CDK4/cyclin D1 = CDK4/cyclin D1 (Homo sapiens, UniProt P11802); assay: Assay of kinase activity (ADP-Glo); type: biochemical; details: kinase inhibitory activity
Method in brief: as §2

CDK6/cyclin D3 = CDK6/cyclin D3 (Homo sapiens, UniProt Q00534); assay: Assay of kinase activity (ADP-Glo); type: biochemical; details: kinase inhibitory activity
Method in brief: (§3)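 ADP production quantified by luminescence after 60 min kinase reaction at 25 °C, started with substrate/ATP following 10 min enzyme-compound preincubation. Buffer: 50 mM Hepes, 10 mM MgCl2, 0.01% Brij35, 2 mM DTT. IC50 obtained by nonlinear curve fitting of inhibition data.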

CDK9/cyclin T1 = CDK9/cyclin T1 (Homo sapiens, UniProt P50750); assay: Assay of kinase activity (ADP-Glo); type: biochemical; details: kinase inhibitory activity
Method in brief: as §3

CDK9/cyclin T1, sequence (P50750 whole entry, species assumed): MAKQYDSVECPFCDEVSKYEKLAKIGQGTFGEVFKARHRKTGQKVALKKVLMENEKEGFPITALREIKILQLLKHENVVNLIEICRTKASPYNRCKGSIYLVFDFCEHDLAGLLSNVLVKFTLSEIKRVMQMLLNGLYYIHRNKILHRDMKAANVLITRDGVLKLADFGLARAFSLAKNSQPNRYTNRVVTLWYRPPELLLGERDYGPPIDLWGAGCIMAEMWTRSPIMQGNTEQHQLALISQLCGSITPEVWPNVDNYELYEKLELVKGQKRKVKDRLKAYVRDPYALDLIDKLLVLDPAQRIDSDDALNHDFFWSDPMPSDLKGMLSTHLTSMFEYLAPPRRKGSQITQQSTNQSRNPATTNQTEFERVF
CDK9/cyclin T1, sequence (O60563 whole entry partner, species assumed): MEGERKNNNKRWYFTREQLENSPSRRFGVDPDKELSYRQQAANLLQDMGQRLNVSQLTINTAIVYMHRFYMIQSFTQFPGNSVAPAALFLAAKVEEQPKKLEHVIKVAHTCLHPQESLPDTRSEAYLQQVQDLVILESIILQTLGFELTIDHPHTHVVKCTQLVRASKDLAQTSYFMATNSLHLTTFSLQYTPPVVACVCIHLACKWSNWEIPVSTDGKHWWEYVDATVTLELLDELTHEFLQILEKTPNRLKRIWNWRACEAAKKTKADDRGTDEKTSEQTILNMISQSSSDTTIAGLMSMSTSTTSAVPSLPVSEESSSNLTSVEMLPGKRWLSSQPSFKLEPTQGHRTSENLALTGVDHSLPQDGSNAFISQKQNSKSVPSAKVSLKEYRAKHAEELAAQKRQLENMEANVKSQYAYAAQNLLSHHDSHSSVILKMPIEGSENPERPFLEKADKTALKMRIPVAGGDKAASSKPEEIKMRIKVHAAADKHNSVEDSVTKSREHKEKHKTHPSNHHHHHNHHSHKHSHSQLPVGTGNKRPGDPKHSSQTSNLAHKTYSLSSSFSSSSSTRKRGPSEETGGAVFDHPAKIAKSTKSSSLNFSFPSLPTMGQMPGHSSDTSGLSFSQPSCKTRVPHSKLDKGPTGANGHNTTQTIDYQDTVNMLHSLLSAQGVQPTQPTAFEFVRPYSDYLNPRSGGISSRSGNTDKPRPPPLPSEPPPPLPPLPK
CDK4/cyclin D1, sequence (P11802 whole entry, species assumed): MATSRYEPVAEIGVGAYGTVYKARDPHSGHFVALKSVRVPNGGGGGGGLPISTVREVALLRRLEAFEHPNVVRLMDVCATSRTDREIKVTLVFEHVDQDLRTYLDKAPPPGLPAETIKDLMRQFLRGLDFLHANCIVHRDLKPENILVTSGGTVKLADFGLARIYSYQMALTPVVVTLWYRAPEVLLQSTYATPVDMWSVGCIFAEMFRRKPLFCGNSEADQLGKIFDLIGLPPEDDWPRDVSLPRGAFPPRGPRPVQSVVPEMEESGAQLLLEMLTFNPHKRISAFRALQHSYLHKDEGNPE
CDK4/cyclin D1, sequence (P24385 whole entry partner, species assumed): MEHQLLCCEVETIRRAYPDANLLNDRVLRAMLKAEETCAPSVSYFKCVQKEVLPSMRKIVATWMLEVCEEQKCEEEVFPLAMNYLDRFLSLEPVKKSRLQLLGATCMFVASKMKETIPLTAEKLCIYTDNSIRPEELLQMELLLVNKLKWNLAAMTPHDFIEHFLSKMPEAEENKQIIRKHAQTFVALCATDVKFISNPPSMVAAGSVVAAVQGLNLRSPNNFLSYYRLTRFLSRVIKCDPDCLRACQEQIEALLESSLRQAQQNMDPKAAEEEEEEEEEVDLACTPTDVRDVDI
CDK6/cyclin D3, sequence (Q00534 whole entry, species assumed): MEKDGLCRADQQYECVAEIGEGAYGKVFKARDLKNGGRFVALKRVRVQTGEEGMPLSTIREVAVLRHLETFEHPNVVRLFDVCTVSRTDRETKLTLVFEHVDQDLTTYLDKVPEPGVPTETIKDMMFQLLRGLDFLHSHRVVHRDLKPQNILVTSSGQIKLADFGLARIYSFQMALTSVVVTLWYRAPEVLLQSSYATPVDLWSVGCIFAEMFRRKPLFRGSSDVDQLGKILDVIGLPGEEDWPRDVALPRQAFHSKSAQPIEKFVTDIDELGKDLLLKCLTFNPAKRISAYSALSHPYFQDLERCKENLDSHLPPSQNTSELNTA
CDK6/cyclin D3, sequence (P30281 whole entry partner, species assumed): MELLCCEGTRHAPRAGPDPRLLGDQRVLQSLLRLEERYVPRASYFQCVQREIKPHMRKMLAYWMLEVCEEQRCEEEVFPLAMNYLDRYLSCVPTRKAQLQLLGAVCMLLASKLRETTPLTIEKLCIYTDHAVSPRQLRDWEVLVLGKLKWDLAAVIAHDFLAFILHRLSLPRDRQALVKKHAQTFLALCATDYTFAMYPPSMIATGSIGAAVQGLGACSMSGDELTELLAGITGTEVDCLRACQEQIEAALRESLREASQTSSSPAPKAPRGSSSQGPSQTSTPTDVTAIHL

## CN[C@@H]1CCN(C(=O)c2ccc(Nc3ncc4ccc5nnn(C(C)C)c5c4n3)cc2)C1 [Example I-7, (R)-(4-((1-Isopropyl-1H-[1,2,3]triazolo[4,5-H]quinazolin-8-yl)amino)phenyl)(3-(methylamino)pyrrolidin-1-yl)methanone]
[1]
  IC50: 14 nM
[2]
  IC50: 8 nM
[3]
  IC50: 20 nM
[4]
  IC50: 11 nM
[5]
  IC50: 5 nM
[6]
  IC50: 16 nM
CDK2/cyclin E
  IC50: 0.1 nM
CDK4/cyclin D1
  IC50: 0.8 nM
CDK6/cyclin D3
  IC50: 3 nM
CDK9/cyclin T1
  IC50: 3 nM

## CC(C)n1nnc2ccc3cnc(Nc4ccc(C(=O)N5CCOCC5)cc4)nc3c21 [Example I-35, (4-((1-Isopropyl-1H-[1,2,3]triazolo[4,5-H]quinazolin-8-yl)amino)phenyl)(morpholino)methanone]
[1]
  IC50: 224 nM
[2]
  IC50: 162 nM
[3]
  IC50: 233 nM
[4]
  IC50: 95 nM
[5]
  IC50: 16 nM
[6]
  IC50: 21 nM
CDK2/cyclin E
  IC50: 0.7 nM
CDK4/cyclin D1
  IC50: 2 nM
CDK6/cyclin D3
  IC50: 12 nM
CDK9/cyclin T1
  IC50: 6 nM

## CC(C)n1nnc2ccc3cnc(Nc4ccc(C(=O)N5CCC(F)(F)CC5)cc4)nc3c21 [Example I-37, (4,4-Difluoropiperidin-1-yl)(4-((1-isopropyl-1H-[1,2,3]triazolo[4,5-H]quinazolin-8-yl)amino)phenyl)metha none]
[1]
  IC50: 372 nM
[2]
  IC50: 239 nM
[3]
  IC50: 832 nM
[4]
  IC50: 136 nM
[5]
  IC50: 20 nM
[6]
  IC50: 58 nM
CDK2/cyclin E
  IC50: 0.8 nM
CDK4/cyclin D1
  IC50: 3 nM
CDK6/cyclin D3
  IC50: 11 nM
CDK9/cyclin T1
  IC50: 10 nM
